Reference: patent publication US20080015222A1, “New Heterocyclic Amides” (ASTRAZENECA AB, priority 2004, published 2008)

Target: T1, hVR1 (Homo sapiens, UniProt Q8NER1)
T1 construct: expressed in transfected cells
Experiment: hVR1 FLIPR (Fluorometric Image Plate Reader) screening assay, IC50 determination
Format: cell-based
Details: CHO cells stably expressing hVR1
Protocol: 1. hVR1FLIPR (Fluorometric Image Plate Reader) Screening Assay
Transfected CHO cells, stably expessing hVR1 (15,000 cells/well) are seeded in 50 ul media in a black clear bottom 384 plate (Greiner) and grown in a humidified incubator (37° C., 2% CO2), 24-30 hours prior to experiment.
Subsequently, the media is removed from the cell plate by inversion and 2 μM Fluo-4 is added using a multidrop (Labsystems). Following the 40 minutes dye incubation in the dark at 37° C. and 2% CO2, the extracellular dye present is washed away using an EMBLA (Scatron), leaving the cells in 40 ul of assay buffer (1×HBSS, 10 mM D-Glucose, 1 mM CaCl2, 10 mM HEPES, 10×7.5% NaHCO3 and 2.5 mM Probenecid).
FLIPR Assay—IC50 Determination Protocol
For IC50 determinations the fluorescence is read using FLIPR filter 1 (em […]). A cellular baseline recording is taken for 30 seconds, followed by a 20 μl addition of 10, titrated half-log concentrations of the test compound, yielding cellular concentration ranging from 3 μM to 0.1 nM. Data is collected every 2 seconds for a further 5 minutes prior to the addition of a VR1 agonist solution: either 50 nM solution of capsaicin or MES (2-[N-morpholino]ethanesulfonic acid) buffer (pH 5.2), by the FLIPR pipettor. The FLIPR continues to collect data for a further 4 minutes. Compounds having antagonistic properties against the hVR1 will inhibit the increase in intracellular calcium in response to the capsaicin addition. This consequently leading to a reduction in fluorescence signal and providing a reduced fluorescence reading, compared with no compound, buffer controls. Data is exported by the FLIPR program as a sum of fluorescence calculated under the curve upon the addition of capsaicin. Maximum inhibition, Hill slope and IC50 data for each compound are generated.

[1] = agonist low pH (MES buffer pH 5.2)

T1 sequence (Q8NER1 whole entry): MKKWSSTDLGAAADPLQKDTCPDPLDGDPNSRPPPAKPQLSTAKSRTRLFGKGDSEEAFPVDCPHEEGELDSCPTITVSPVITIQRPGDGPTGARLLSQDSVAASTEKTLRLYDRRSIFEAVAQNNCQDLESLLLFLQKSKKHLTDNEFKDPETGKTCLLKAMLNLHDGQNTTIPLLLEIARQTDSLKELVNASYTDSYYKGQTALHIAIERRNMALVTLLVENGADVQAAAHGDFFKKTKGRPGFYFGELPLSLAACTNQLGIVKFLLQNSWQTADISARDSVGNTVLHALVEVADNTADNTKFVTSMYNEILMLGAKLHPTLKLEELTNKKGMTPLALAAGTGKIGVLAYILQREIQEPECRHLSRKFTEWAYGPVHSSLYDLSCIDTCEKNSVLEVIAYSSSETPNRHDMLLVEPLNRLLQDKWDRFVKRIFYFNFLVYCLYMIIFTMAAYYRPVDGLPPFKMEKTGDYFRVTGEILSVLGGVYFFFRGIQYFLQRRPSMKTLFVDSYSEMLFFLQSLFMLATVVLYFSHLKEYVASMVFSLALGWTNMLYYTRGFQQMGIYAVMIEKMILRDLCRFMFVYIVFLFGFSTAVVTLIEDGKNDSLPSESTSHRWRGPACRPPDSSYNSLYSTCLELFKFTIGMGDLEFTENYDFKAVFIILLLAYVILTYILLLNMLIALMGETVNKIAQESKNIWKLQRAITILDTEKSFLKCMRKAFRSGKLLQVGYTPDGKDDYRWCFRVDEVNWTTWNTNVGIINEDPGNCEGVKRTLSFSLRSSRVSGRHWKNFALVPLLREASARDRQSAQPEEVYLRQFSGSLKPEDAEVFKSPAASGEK

| IC50 (agonist capsaicin (50 nM)) [nM] | IC50 [1] [nM] | SMILES |
| --- | --- | --- |
| 77 | 53 | COc1cc(NC(=O)Cn2cnc3cccc(C(C)=O)c32)cc(C(F)(F)F)c1 [Example 32, 2-(7-Acetyl-1H-benzimidazol-1-yl)-N-[3-methoxy-5-(trifluoromethyl)phenyl]acetamide] |
| 48 | 108 | O=C(Cn1cnc2cccc([N+](=O)[O-])c21)Nc1cc(F)c(F)c(F)c1 [Example 14, 2-(7-Nitro-1H-benzimidazol-1-yl)-N-(3,4,5-trifluorophenyl)acetamide] |
| 518 | 508 | COc1cc(NC(=O)Cn2cnc3cccc(C(C)=O)c32)cc(OC)c1 [Example 35, 2-(7-Acetyl-1H-benzimidazol-1-yl)-N-(3,5-dimethoxyphenyl)acetamide] |
| 22 | 45 | COCCOc1cc(NC(=O)Cn2cnc3cccc([N+](=O)[O-])c32)cc(OC)c1 [Example 10, N-[3-Methoxy-5-(2-methoxyethoxy)phenyl]-2-(7-nitro-1H-benzimidazol-1-yl)acetamide] |
